Data on 4 compounds can be found in patent publication US20250304582A1, “Bicyclic Ureas As Kinase Inhibitors” (Incyte Corporation, priority 2024, published 2025).

For experiment [1], the target named is T1, catalytic domain (JH1, amino acids 808-1132) of human JAK2 (Homo sapiens, UniProt O60674).
T1 construct: catalytic domain (JH1, amino acids 808-1132) of human JAK2; His (N); purchased BPS Bioscience 40450; host or cells: baculovirus expression system
Kind of experiment: JAK2 HTRF Enzyme Activity Assay. The following applies: ATP (30 μM or 1 mM; not stated which for the table), 60 minutes at 25° C.; read-out: JAK2 HTRF (Ex. D). The format is biochemical. Put shortly: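 N-terminal His-tagged, baculovirus-expressed JH1 domain (0.015 nM) reacts 60 min at 25 °C with 500 nM biotinylated peptide and 30 μM or 1 mM ATP in Tris pH 7.5/10 mM MgCl2. Phosphorylation is detected by HTRF with Eu-anti-phosphotyrosine (PY20) and streptavidin-APC after EDTA stop. IC50 comes from four-parameter fits.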

Experiment [2] has as its target T2, pseudo-kinase domain (JH2, amino-acids 536-812) of human Wild Type JAK2 (Homo sapiens, UniProt O60674, F794H/W659A/W777A).
T2 construct: JH2, amino-acids 536-812 with 3 surface mutations W659A, W777A, F794H; His (C); purchased BPS Bioscience 79463; host or cells: baculovirus expression system
In words: JAK2 LanthaScreen JH2-WT Binding Assay. The note with it: 50 nM Fluorescent JAK2-JH2 Tracer, 1 hour at 25° C.; read-out: JH2 BIND WT (EX. B). Put shortly:
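JH2 domain (0.145 nM; His-Avi-tagged, biotinylated, baculovirus-expressed) incubated 1 h at 25° C. with compounds, 50 nM fluorescent JH2 tracer and 0.25 nM streptavidin-Tb in pH 7.5 Tris buffer with MgCl2, EGTA, DTT. Non-specific binding defined with 2 mM ATP. TR-FRET tracer displacement read; IC50 from four-parameter fit.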

The target of experiment [3] is T3, catalytic domain (JH1, amino acids 826-1132) of human JAK2 (Homo sapiens, UniProt O60674).
T3 construct: catalytic domain (JH1, amino acids 826-1132) of human JAK2; FLAG (N); purchased Carna Biosciences 08-445-20N; host or cells: baculovirus expression system
Kind of experiment: JAK2 LanthaScreen JH1 Binding Assay. The note with it: 50 nM fluorescent JAK2-JH1 tracer, 2 hours at 25° C.; read-out: JH1 BIND (EX. A). Put shortly:
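FLAG-tagged biotinylated JAK2 JH1 (1.5 nM) was incubated 2 h at 25° C with compound, 50 nM fluorescent tracer and 0.5 nM Streptavidin-Tb in Tris pH 7.5 buffer. Tracer displacement read by TR-FRET; nonspecific binding defined with 2 mM ATP. IC50 from four-parameter fit.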

In experiment [4] the target is T4, pseudo-kinase domain (JH2, amino-acids 536-812) of human V617F mutant JAK2 (Homo sapiens, UniProt O60674, F794H/V617F/W659A/W777A).
T4 construct: JH2, amino-acids 536-812 with 3 surface mutations W659A, W777A, F794H; His (C); purchased BPS Bioscience 79498; host or cells: baculovirus expression system
In words: JAK2 LanthaScreen JH2-V617F Binding Assay. The note with it: 50 nM Fluorescent JAK2-JH2 Tracer, 1 hour at 25° C.; read-out: JH2 BIND V617F (Ex. C). Put shortly:
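Biotinylated His-Avi-tagged JH2 construct (536-812, W659A/W777A/F794H) at 0.26 nM, with 50 nM fluorescent JH2 tracer and 0.25 nM streptavidin-Tb, in pH 7.5 Tris/MgCl2 buffer; 1 h at 25° C. Non-specific binding defined with 2 mM ATP. IC50 derived from TR-FRET signal by four-parameter dose-response fit.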

The structures appear in SMILES notation.

T1 sequence (O60674 808-1132): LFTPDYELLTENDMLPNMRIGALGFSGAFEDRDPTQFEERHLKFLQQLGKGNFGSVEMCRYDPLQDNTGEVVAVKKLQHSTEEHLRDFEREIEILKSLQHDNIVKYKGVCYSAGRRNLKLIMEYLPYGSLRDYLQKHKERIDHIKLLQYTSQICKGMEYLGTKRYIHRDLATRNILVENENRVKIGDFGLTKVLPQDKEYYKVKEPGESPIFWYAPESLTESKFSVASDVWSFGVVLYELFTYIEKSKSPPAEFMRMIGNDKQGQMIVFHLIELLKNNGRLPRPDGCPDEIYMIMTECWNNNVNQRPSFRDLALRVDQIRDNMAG
T3 sequence (O60674 826-1132): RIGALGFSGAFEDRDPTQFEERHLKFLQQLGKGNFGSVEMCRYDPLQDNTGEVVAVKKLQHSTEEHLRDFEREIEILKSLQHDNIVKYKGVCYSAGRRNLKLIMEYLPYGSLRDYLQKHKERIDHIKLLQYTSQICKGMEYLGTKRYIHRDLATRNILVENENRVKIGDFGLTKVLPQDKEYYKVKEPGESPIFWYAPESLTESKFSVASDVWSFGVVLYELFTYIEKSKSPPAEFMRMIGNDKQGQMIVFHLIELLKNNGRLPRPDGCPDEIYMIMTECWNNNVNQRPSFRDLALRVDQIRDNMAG
T4 sequence (O60674 536-812 V617F/W659A/W777A/F794H): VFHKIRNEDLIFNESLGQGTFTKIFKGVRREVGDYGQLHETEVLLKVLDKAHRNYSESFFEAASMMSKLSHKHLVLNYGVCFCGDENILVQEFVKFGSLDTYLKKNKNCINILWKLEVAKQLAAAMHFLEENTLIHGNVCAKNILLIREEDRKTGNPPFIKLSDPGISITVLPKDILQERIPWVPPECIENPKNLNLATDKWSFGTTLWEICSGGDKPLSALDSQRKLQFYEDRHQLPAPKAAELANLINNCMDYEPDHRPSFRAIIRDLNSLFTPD
T2 sequence (O60674 536-812 W659A/W777A/F794H): as the sequence (O60674 536-812 V617F/W659A/W777A/F794H) above, with F82V counted along it

In the case of `COC(=O)N[C@@H]1CC[C@@H](n2c(=O)n(C)c3cnc(Nc4ccc5cccc(C#N)c5n4)cc32)C1` [Example 43, Methyl ((1R,3R)-3-(6-((8-cyanoquinolin-2-yl)amino)-3-methyl-2-oxo-2,3-dihydro-1H-imidazo[4,5-c]pyridin-1-yl)cyclopentyl)carbamate], the IC50 in experiment [1] was above 1000 nM; in experiment [2], at most 10 nM; in experiment [3], above 1000 nM; in experiment [4], at most 10 nM.

On to `COC(=O)N[C@@H]1CC[C@@H](n2c(=O)n(C)c3cnc(Nc4ccc5ccc(C#N)cc5n4)cc32)C1` [Example 44, Methyl ((1R,3R)-3-(6-((7-cyanoquinolin-2-yl)amino)-3-methyl-2-oxo-2,3-dihydro-1H-imidazo[4,5-c]pyridin-1-yl)cyclopentyl)carbamate], for which the IC50 in experiment [1] is above 1000 nM; in experiment [2] it was 100 to 500 nM; in experiment [3], above 1000 nM; in experiment [4] it was 100 to 500 nM.

In the case of `COC(=O)N[C@@H]1CC[C@@H](n2c(=O)n(C)c3cnc(Nc4ccc5cc(C#N)ccc5n4)cc32)C1` [Example 45, Methyl ((1R,3R)-3-(6-((6-cyanoquinolin-2-yl)amino)-3-methyl-2-oxo-2,3-dihydro-1H-imidazo[4,5-c]pyridin-1-yl)cyclopentyl)carbamate], the IC50 was above 1000 nM in experiment [1], 10 to 100 nM in experiment [2], above 1000 nM in experiment [3] and 100 to 500 nM in experiment [4].

Take `[2H]C([2H])([2H])n1c(=O)n([C@@H]2CC[C@@H](NC(=O)OC)C2)c2cc(Nc3ccc4c(C(C)(C)O)ccc(C(F)(F)F)c4n3)ncc21` [Example 47, Methyl ((1R,3R)-3-(6-((5-(2-hydroxypropan-2-yl)-8-(trifluoromethyl)quinolin-2-yl)amino)-3-(methyl-d3)-2-oxo-2,3-dihydro-1H-imidazo[4,5-c]pyridin-1-yl)cyclopentyl)carbamate]: the IC50 in experiment [1] is above 1000 nM; in experiment [2] it was at most 10 nM; in experiment [3], above 1000 nM; in experiment [4], at most 10 nM.
